PMC2395260 (Genome Biology, 2008)
Read-outs that look alike come from different tables or passages of the source.

Assays:
[1] = test system: HCV subgenomic replicon (genotype 1b) harboring the V36G mutant in Huh-7.5 cells; experiment: Two-day HCV replicon assay, V36G mutant; format: cell-based, hepatitis C virus genotype 1b; settings: for IC50: Hepatitis C virus, Huh7.5, 48 h, read-out: IC50 (HCV RNA level in replicon cells reduced by 50%); for viral suppression in V36G mutant replicon assay in comparison to wild-type replicon assay: V36G versus wild-type replicon, genotype 1b, 48 h
Procedure: Only the SCH 503034 inhibitor is lacking the cyclopropyl group (Figure 1). We used a wild-type HCV replicon assay (genotype 1b) and an assay harboring the V36G mutant for in vitro testing. Detailed information on experimental procedures is given in Materials and methods.
SCH 503034 was synthesized by Schering-Plough Corporation (Kenilworth, NJ, USA), dissolved in dimethyl sulfoxide as a 19 mM solution. Both compounds were stored at 4°C.
The plasmid pFKI389neo/NS3-3'/ET contains HCV subgenomic replicon sequences derived from HCV genotype 1b and an upstream T7 promoter for in vitro RNA synthesis. The point mutation was generated with the QuikChange II XL Site-Directed Mutagenesis Kit (Stratagene, La Jolla, CA, USA). The plasmid was linearized with ScaI and purified by phenol chloroform extraction. The linearized and purified plasmid was transcribed by using a T7 RNA polymerase (Promega, Madison, WI, USA) according to the manufacturer's instructions. All of the plasmids and RNAs were checked for purity and integrity by standard procedures.
Huh-7.5 cells were cultured in Dulbecco's modified Eagle's medium (DMEM; Invitrogen, Carlsbad, CA, USA) containing 10% fetal bovine serum (FBS; PAA Laboratories GmbH, Pasching, Germany) and 2 mM L-glutamine. The cells were transfected with an in vitro-transcribed subgenomic HCV replicon RNA. The wild-type sequence was identical to that of the pFKI389neo/NS3-3'/ET replicon. Stable cells containing the self-replicating HCV replicon were selected and maintained in the presence of 750 μg of G418 (Invitrogen) per ml and were used for HCV replicon assays.
HCV replicon cells were plated in a 6-well plate at a density of 2 × 10^5 cells per well in DMEM with 10% FBS. On the following day (24 h later), the culture medium was replaced with DMEM containing either no compound as a control or compounds serially diluted in the presence of 10% FBS and 750 μg/ml G418. After the cells were incubated with the compounds for 48 h, the intracellular RNA was extracted with an RNeasy kit (Qiagen, Valencia, CA, USA). The level of HCV RNA was determined by a real-time quantitative reverse transcription-PCR (RT-PCR) assay (Taqman) with a pair of HCV-specific primers (5'-[…]-3' and 5'-[…]-3'), an HCV-specific probe (5'-6FAM-[…] XT-PH-3), and an ABI Prism 7000 sequence detection system (Applied Biosystems, Foster City, CA, USA).

[2] = test system: wild-type NS3-4A protease, HCV genotype 1a (HCV-H); settings: HCV genotype 1a reference strain HCV-H; cited from earlier work
[3] = test system: NS3-4A protease V36A/G/L/M mutants; settings: cited from earlier work
[4] = test system: NS3-4A protease T54S mutant; settings: cited from earlier work
[5] = test system: NS3-4A protease T54A mutant; settings: cited from earlier work
[6] = test system: NS3-4A protease R155G/I/K/L/M/S/T mutants; settings: cited from earlier work
[7] = test system: NS3-4A protease A156I/T/V mutants; settings: range over A156I/T/V mutants; cited from earlier work
[8] = test system: NS3-4A protease A156S mutant; settings: cited from earlier work
[9] = test system: HCV genotype 1; settings: phase 1b clinical trial, after treatment duration of 24 hours; cited from earlier work

| Compound | IC50 [1] [nM] | viral suppression in V36G mutant replicon assay in comparison to wild-type replicon assay [1] | IC50 [2] [nM] | IC50 ([3]; V36A/G/L/M mutants, read-out: IC50 mean) [nM] | IC50 ([3]; range over V36A/G/L/M mutants, read-out: IC50 range) [nM] | IC50 [4] [nM] | IC50 [5] [nM] | IC50 ([6]; R155G/I/K/L/M/S/T mutants, read-out: IC50 mean) [nM] | IC50 ([6]; range over R155G/I/K/L/M/S/T mutants, read-out: IC50 range) [nM] | IC50 [7] [nM] | IC50 [8] [nM] | HCV RNA decline [9] |
| --- | --- | --- | --- | --- | --- | --- | --- | --- | --- | --- | --- | --- |
| CC(C)(C)NC(=O)N[C@H](C(=O)N1C[C@H]2[C@@H]([C@H]1C(=O)NC(CC1CCC1)C(=O)C(N)=O)C2(C)C)C(C)(C)C (some centres unmarked) [SCH 503034, boceprevir] | < 5000 | nearly equally effective | – | – | – | – | – | – | – | – | – | – |
| CCC[C@H](NC(=O)[C@@H]1[C@H]2CCC[C@H]2CN1C(=O)[C@@H](NC(=O)[C@@H](NC(=O)c1cnccn1)C1CCCCC1)C(C)(C)C)C(=O)C(=O)NC1CC1 [VX-950, telaprevir] | ~5000 | considerably delayed | 70 | 226 | 110 to 444 | 120 | 749 | 538 | 275 to 1050 | 12500 to 50000 | 1400 | above 3 log |
